Measurements published in paper PMC6003237 (Bioorganic & medicinal chemistry, 2017).
“And” between values parts separate entries of the source, which are not always exact repeats. Equal entries are not always repeated. Where two headings read alike, the source gives them in different places. *1 amine or outer side, *2 acyl side, *3 side chain or, on linkers, in order; H or OH if unused. Where a SMILES comes first, the peptide text is derived from it. [ ]: non-standard residue; d: D form. The star is where a group is joined. Emetine(N2') = CC[C@H]1CN2CCc3cc(OC)c(OC)cc3[C@@H]2C[C@@H]1C[C@@H]1c2cc(OC)c(OC)cc2CCN1*; PABC = O=C(OCc1ccc(N[*:1])cc1)[*:2]

Legend:
mice [1] = conditions: for MTD (nmol injected): mice of average body weight 25 g; for dose producing acute toxicity (convulsions and death) / dose producing acute toxicity (convulsions and death), nmol: single IV injection
[2] = system: NCI 60 cancer cell screen; conditions: ref not given; cited from earlier work
PC-3 xenografts = conditions: dose of 8 mg/kg, earlier studies, ref not given; cited from earlier work
DPPIV = conditions: activation by DPPIV; ref [9]; cited from earlier work
[3] = system: different cancer cell lines; conditions: cited from earlier work
[4] = human, 200 µM
PC3 = assay: MTT cytotoxicity in non-PSA-producing PC3 cells; format: cell-based, human
[5] = Stability / hydrolysis in 10% FBS
[6] = Hydrolysis in LNCaP conditioned media; conditions: serum containing LNCaP conditioned media, 37 °C, 24–72 h
[7] = PBS
[8] = target: Purified native human prostate specific antigen (PSA) (Homo sapiens, UniProt P07288); assay: PSA-mediated hydrolysis of prodrug ex-vivo; format: biochemical
LNCaP = assay: MTT cytotoxicity in PSA producing LNCaP cells; format: cell-based, human
CWR22Rv1 = assay: MTT cytotoxicity in low PSA-producing CWR22Rv1 cells; format: cell-based, human
[9] = Stability in human plasma; format: in vitro ADME; conditions: 48 h
mice [10] = conditions: earlier studies of the authors, ref not given; cited from earlier work

Sequence of Purified native human prostate specific antigen (PSA) (P07288 25-261): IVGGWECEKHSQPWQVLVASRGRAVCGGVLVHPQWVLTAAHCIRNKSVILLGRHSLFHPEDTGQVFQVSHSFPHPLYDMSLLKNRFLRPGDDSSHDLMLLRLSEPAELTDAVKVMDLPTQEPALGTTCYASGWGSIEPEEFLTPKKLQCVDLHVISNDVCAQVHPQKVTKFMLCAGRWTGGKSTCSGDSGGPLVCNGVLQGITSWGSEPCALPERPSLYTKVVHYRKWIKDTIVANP

## CC[C@H]1CN2CCc3cc(OC)c(OC)cc3[C@@H]2C[C@@H]1C[C@H]1NCCc2cc(OC)c(OC)cc21 [Emetine, emetine, reference compound]
Mice [1]; IV injection, mice
  Effects/observations at higher doses: Convulsion and death within 1 min of injection at 16 mg/kg
Mice [1]; IV injection
  MTD (nmol injected): 416 nmol
Mice [1]; mice
  dose producing acute toxicity (convulsions and death): 16 mg/kg
[2]
  GI50: 27 nM
PC-3 xenografts
  therapeutic efficacy: no therapeutic efficacy

## CC[C@H]1CN2CCc3cc(OC)c(OC)cc3[C@@H]2C[C@@H]1C[C@@H]1c2cc(OC)c(OC)cc2CCN1C(=O)OCc1ccc(NC(=O)[C@@H]2CCCN2C(=O)[C@H](C)N)cc1 [compound 10, 4-((S)-1-(L-Alanyl)pyrrolidine-2-carboxamido)benzyl (R)-1-(((2R,3R,11bS)-3-ethyl-9,10-dimethoxy-1,3,4,6,7,11b-hexahydro-2H-pyrido[2,1-a]isoquinolin-2-yl)methyl)-6,7-dimethoxy-3,4-dihydroisoquinoline-2(1H)-carboxylate]
DPPIV
  time for efficient quantitative release of emetine: ≤ 24 h
Mice [1]; IV injection, mice
  Effects/observations at higher doses: Convulsion and death at higher doses
Mice [1]; IV injection
  MTD (nmol injected): 1003 nmol and 1002 nmol
[3]; cancer cell lines, ref [6]–[9]
  in vitro cytotoxicity compared to emetine: equipotency with emetine

## CC[C@H]1CN2CCc3cc(OC)c(OC)cc3[C@@H]2C[C@@H]1C[C@@H]1c2cc(OC)c(OC)cc2CCN1C(=O)OCc1ccc(NC(=O)[C@H](CC(C)C)NC(=O)[C@@H](N)CO)cc1 [compound 14, 4-((S)-2-((S)-2-Amino-3-hydroxypropanamido)-4-methyl-pentanamido) benzyl (R)-1-(((2R,3R,11bS)-3-ethyl-9,10-dimethoxy-1,3,4,6,7,11b-hexahydro-2H-pyrido[2,1-a]isoquinolin-2-yl)methyl)-6,7-dimethoxy-3,4-dihydroisoquinoline-2(1H)-carboxylate]
[4]
  % Ser-Leu-PABC-Emetine, 14 after 72 h incubation: 100%
Mice [1]; IV injection, mice
  Effects/observations at higher doses: Toxic effect was observed at higher doses
Mice [1]; IV injection
  MTD (nmol injected): 1541 nmol
PC3
  cytotoxicity compared to emetine: comparable to emetine
PC3; Homo sapiens, PC-3, 72 h
  IC50: < 100 nM
[5]; 10% FBS containing media, 37 °C, 24–72 h
  hydrolysis to emetine or any product (LCMS): did not result in its hydrolysis to emetine or any product of hydrolysis
[6]
  hydrolysis to emetine or any product (LCMS): did not result in its hydrolysis to emetine or any product of hydrolysis
[7]; 37 °C, 24–72 h
  hydrolysis to emetine or any product (LCMS): did not result in its hydrolysis to emetine or any product of hydrolysis
[7]; 37 °C, 72 h
  % Emetine after 72 h incubation: 0.0%
  % Ser-Leu-PABC-Emetine, 14 after 72 h incubation: 100%
[8]; Purified PSA, 37 °C, 72 h
  % Emetine after 72 h incubation: 0.0%
[8]; purified PSA, 37 °C, 24–72 h
  hydrolysis / conversion to emetine on incubation with purified PSA (LCMS): not observed
LNCaP
  cytotoxicity compared to emetine: comparable to emetine
LNCaP; Homo sapiens, LNCaP, 72 h
  IC50: < 100 nM

## CC[C@@H]1C[C@@H](C[C@@H]2c3cc(OC)c(OC)cc3CCN2C(=O)OCc2ccc(NC(=O)[C@H](CC(C)C)NC(=O)[C@H](CO)NC(C)=O)cc2)[C@H]2c3cc(OC)c(OC)cc3CCN2C1 [compound 15, 4-((S)-2-((S)-2-Acetamido-3-hydroxypropanamido)-4-methyl-pentanamido) benzyl (R)-1-(((2R,3R,11bS)-3-ethyl-9,10-dimethoxy-1,3,4,6,7,11b-hexahydro-2H-pyrido[2,1-a]isoquinolin-2-yl)methyl)-6,7-dimethoxy-3,4-dihydroisoquinoline-2(1H)-carboxylate]
PC3; PC3 (Fig. 3B)
  concentration at which significant cytotoxicity was demonstrated: 10,000 nM
LNCaP; LNCaP (Fig. 3A)
  concentration at which significant cytotoxicity was demonstrated: 10,000 nM

## CC[C@H]1CN2CCc3cc(OC)c(OC)cc3[C@@H]2C[C@@H]1C[C@@H]1c2cc(OC)c(OC)cc2CCN1C(=O)OCc1ccc(NC(=O)[C@H](CC(C)C)NC(=O)[C@H](CO)NC(=O)[C@H](CCC(N)=O)NC(=O)[C@H](CC(C)C)NC(=O)[C@H](CCCCN)NC(=O)[C@H](CO)NC(=O)[C@H](CO)NC(=O)[C@H](Cc2c[nH]cn2)NC(C)=O)cc1 [compound 16] (Ac-HSSKLQSL[PABC]-{Emetine(N2')})
[8]; purified PSA, 2 h
  % of 14 observed after incubation with PSA (LCMS): 20%
[8]; purified PSA, 6 h
  % of 14 observed after incubation with PSA (LCMS): 50%
[8]; purified PSA, 20 h
  % of 14 observed after incubation with PSA (LCMS): 98%
CWR22Rv1
  IC50 fold higher than the IC50 of emetine: about 2 fold
LNCaP; LNCaP
  IC50 fold higher than the IC50 of emetine: about 2 fold

## CC[C@H]1CN2CCc3cc(OC)c(OC)cc3[C@@H]2C[C@@H]1C[C@@H]1c2cc(OC)c(OC)cc2CCN1C(=O)OCc1ccc(NC(=O)[C@H](CC(C)C)NC(=O)[C@H](CO)NC(=O)[C@H](CCC(N)=O)NC(=O)[C@H](CC(C)C)NC(=O)[C@H](CCCCN)NC(=O)[C@H](CO)NC(=O)[C@H](CO)NC(=O)[C@H](Cc2cnc[nH]2)NC(C)=O)cc1 [compound 16] (Ac-HSSKLQSL[PABC]-{Emetine(N2')})
Mice [1]; 25 mg/kg (402 nmol) IV
  observation at the MTD: acute distress followed by recovery within an hour of injection
Mice [1]; IV injection, mice
  Effects/observations at higher doses: Convulsion started about 1 min post injection at higher doses
Mice [1]; IV injection
  MTD (nmol injected): 402 nmol
Mice [1]; mice
  dose producing acute toxicity (convulsions and death): 50 mg/kg
  dose producing acute toxicity (convulsions and death), nmol: 804 nmol
PC3; PC3 vs CWR22Rv1 and LNCaP, from IC50
  times less cytotoxic in non-PSA producing cells than in PSA producing cells: 7–9 times
[9]
  stability in human plasma (detection of 14 or emetine): Neither precursor 14 nor emetine was detected
[5]; 10% FBS, five-day incubation at 37 °C
  stability (cleavage, hydrolysis/decomposition): no sign of cleavage or any form of hydrolysis/decomposition was detectable
[7]; five-day incubation at 37 °C
  stability (cleavage, hydrolysis/decomposition): no sign of cleavage or any form of hydrolysis/decomposition was detectable

## CC[C@H]1CN2CCc3cc(OC)c(OC)cc3[C@@H]2C[C@@H]1C[C@@H]1c2cc(OC)c(OC)cc2CCN1C(=S)[S-].[Na+] [compound 18]
Mice [1]; IV injection, mice
  Effects/observations at higher doses: No remarkable behavior even at higher doses. Mice remained alive
Mice [1]; IV injection
  MTD (nmol injected): > 4320 nmol
[3]; cancer cell lines, ref [6]–[9]
  in vitro cytotoxicity compared to emetine: much less toxic in vitro compared to emetine

## CC[C@H]1CN2CCc3cc(OC)c(OC)cc3[C@@H]2C[C@@H]1C[C@@H]1c2cc(OC)c(OC)cc2CCN1C(=O)/C=C(/C)C(=O)O [compound 19]
Mice [1]; IV injection, mice
  Effects/observations at higher doses: No remarkable behavior even at higher doses. Mice remained alive
Mice [1]; IV injection
  MTD (nmol injected): > 4218 nmol
[3]
  in vitro cytotoxicity compared to emetine: much less toxic in vitro compared to emetine

## CC[C@H]1CN2CCc3cc(OC)c(OC)cc3[C@@H]2C[C@@H]1C[C@@H]1c2cc(OC)c(OC)cc2CCN1C(=O)/C=C(/CC(=O)O)C(=O)O [compound 20]
Mice [1]; IV injection, mice
  Effects/observations at higher doses: No remarkable behavior even at higher doses. Mice remained alive
Mice [1]; IV injection
  MTD (nmol injected): > 3926 nmol
[3]
  in vitro cytotoxicity compared to emetine: much less toxic in vitro compared to emetine

## CC[C@H]1CN2CCc3cc(OC)c(OC)cc3[C@@H]2C[C@@H]1C[C@@H]1c2cc(OC)c(OC)cc2CCN1C(=O)/C(C)=C(/C)C(=O)O [compound 21]
Mice [1]; IV injection, mice
  Effects/observations at higher doses: 32 mg/kg (1318 nmol) is toxic like emetine
Mice [10]
  lethal dose: 32 mg/kg

## CC[C@H]1CN2CCc3cc(OC)c(OC)cc3[C@@H]2C[C@@H]1C[C@@H]1c2cc(OC)c(OC)cc2CCN1C(=O)CCC(=O)O [compound 22]
Mice [1]; IV injection, mice
  Effects/observations at higher doses: No remarkable behavior. Mice remained alive
Mice [1]; IV injection
  MTD (nmol injected): > 4305 nmol
[3]
  in vitro cytotoxicity compared to emetine: much less toxic in vitro compared to emetine

## CC[C@H]1CN2CCc3cc(OC)c(OC)cc3[C@@H]2C[C@@H]1C[C@@H]1c2cc(OC)c(OC)cc2CCN1C(=O)[C@@H]1CCCN1C(=O)[C@H](C)N [compound 23]
Mice [1]; IV injection, mice
  Effects/observations at higher doses: Convulsion and death within 1 min of injection at 16 mg/kg (617 nmol)
Mice [1]; mice
  dose producing acute toxicity (convulsions and death): 16 mg/kg
  dose producing acute toxicity (convulsions and death), nmol: 617 nmol
[3]; in vitro cytotoxicity assays, ref [9]
  in vitro cytotoxicity compared to 10: significantly less active

## CC[C@H]1CN2CCc3cc(OC)c(OC)cc3[C@@H]2C[C@@H]1C[C@@H]1c2cc(OC)c(OC)cc2CCN1C(=O)OCc1ccc(NC(=O)[C@@H]2CCCN2C(=O)[C@H](C)NC(=O)[C@@H]2CCCN2C(=O)[C@H](C)NC(C)=O)cc1 [compound 24] (Ac-APAP[PABC]-{Emetine(N2')})
Mice [1]; IV injection, mice
  Effects/observations at higher doses: Intermittent convulsion started 1 min post injection of 33 mg/kg dose (818 nmol). Death occurred after about 8 min
Mice [1]; mice
  dose producing acute toxicity (convulsions and death): 33 mg/kg
  dose producing acute toxicity (convulsions and death), nmol: 818 nmol

## CC[C@H]1CN2CCc3cc(OC)c(OC)cc3[C@@H]2C[C@@H]1C[C@@H]1c2cc(OC)c(OC)cc2CCN1C(=O)OCc1ccc([N+](=O)[O-])cc1 [compound 25]
Mice [1]; IV injection, mice
  Effects/observations at higher doses: No remarkable behavior, no sign of toxicity. Mice remained alive
  dose without any observable sign of toxicity: 64 mg/kg
  dose without any observable sign of toxicity, nmol: 2425 nmol
Mice [1]; IV injection
  MTD (nmol injected): > 2425 nmol
[3]; different cancer cell lines, ref [6]–[9]
  fold less cytotoxic than emetine in vitro: about 200 fold

## CC[C@H]1CN2CCc3cc(OC)c(OC)cc3[C@@H]2C[C@@H]1C[C@@H]1c2cc(OC)c(OC)cc2CCN1C(=S)Nc1ccccc1 [compound 26]
Mice [1]; male, Balb/c, mouse, in vivo, iv
  dose without any observable sign of toxicity: up to 100 mg/kg
[3]; cancer cell lines, ref [6]–[9]
  in vitro cytotoxicity compared to emetine: less cytotoxic in vitro than emetine
